This is an account of results in ChEMBL document CHEMBL1201862, “PubChem BioAssay data set” (2004).

Holding throughout (experiment): DTP human tumour cell line panel, 48 h
In test [1] the test system is CCRF-CEM.
The subject of test [2] is HCT-116.
Test [3] concerns RXF 393.
Test [4] has as its system OVCAR-5.
Test [5] relates to Malme-3M.
Test [6] has as its system HT-29.
The test system of test [7] is SN12C.
Test [8] deals with UACC-62.
The subject of test [9] is MOLT-4.
For test [10], the system named is SNB-19.
For test [11], the system named is SF-268.
For test [12], the system named is TK-10.
The subject of test [13] is SK-OV-3.
In test [14] the test system is COLO 205.
Test [15] has as its system SF-539.
Test [16] deals with MDA-N.
Test [17] deals with KM12.
Test [18] deals with U-251.
Test [19] relates to OVCAR-3.
For test [20], the system named is SW-620.

Molecules are shown by their SMILES.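 Following 48 hours of exposure in 96-well plates, responses at five concentrations were used to interpolate endpoints linearly. GI50 = concentration required for 50% inhibition of growth.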 Calls of active or inactive are those of the source. Rule as the data show it: active = GI50 up to about 1.1 µM and inactive = higher. A value given as a limit tells only on which side of the number the result lay.

What is called GI50 is the concentration giving 50% growth inhibition. Take `CN(Cc1cnc2nc(N)nc(N)c2n1)c1ccc(C(=O)NC(CCC(=O)O)C(=O)O)c2ccccc12` (stereo not given): the GI50 in [1] was 0.000843 µM (active); in test [2] it was 0.000647 µM (active); in [3] it was < 0.1 µM (active); in test [4], 0.0185 µM (active); in test [5] it was 0.0356 µM (active); in [6], 0.00168 µM (active). The GI50 in test [7] was 0.00697 µM (active); in test [8], 0.00148 µM (active); in test [9], 0.00545 µM (active); in [10], 0.0612 µM (active); in [11] it was 0.00536 µM (active); in test [12] it was 0.0458 µM (active). Also, the GI50 in test [13] was 0.0456 µM (active); in test [14], 0.0391 µM (active); in test [15] it was 0.00577 µM (active); in [16] it was 0.000834 µM (active); in [17], 0.00256 µM (active); in test [18], 0.0114 µM (active). Also, the GI50 in test [19] was 0.0429 µM (active); in test [20], 0.00137 µM (active).

Take `O=C(O)c1ccc(Nc2cnc3ccc(C(F)(F)F)cc3n2)cc1`: the GI50 in test [1] was 15.6 µM (inactive); in test [2], 20.1 µM (inactive); in test [3] it was 12.6 µM (inactive); in [4], 32.6 µM (inactive); in test [5], 32.4 µM (inactive); in test [6] it was 17.1 µM (inactive). In addition, the GI50 in test [7] was 25.5 µM (inactive); in test [8], 14 µM (inactive); in [9], 19.9 µM (inactive); in test [10] it was 18.8 µM (inactive); in test [11], 31 µM (inactive); in test [12] it was 13.6 µM (inactive). The GI50 was 33.5 µM (inactive) in [13]; 17.2 µM (inactive) in test [14]; 23.9 µM (inactive) in test [15]; 17 µM (inactive) in test [16]; 16.5 µM (inactive) in test [17]; 24.7 µM (inactive) in test [18]. Also, the GI50 was 28.2 µM (inactive) in test [19] and 20.9 µM (inactive) in test [20].

In the case of `O=C1c2c(F)c(F)c(F)c(F)c2SC2=NCCN12`, the GI50 in test [1] was 2.39 µM (inactive); in test [2], 2.15 µM (inactive); in test [3], 2.47 µM (inactive); in test [4], 15.4 µM (inactive); in test [5], 5.65 µM (inactive); in [6], 3.18 µM (inactive). For the same compound, the GI50 in test [7] was 9.25 µM (inactive); in test [8], 5.04 µM (inactive); in [9], 2.24 µM (inactive); in test [10], 15.3 µM (inactive); in [11], 12.8 µM (inactive); in test [12], 8.69 µM (inactive). Besides, the GI50 is 15.3 µM (inactive) in [13]; 7.23 µM (inactive) in [14]; 16.3 µM (inactive) in [15]; 3.45 µM (inactive) in test [16]; 12.6 µM (inactive) in test [17]; 8.87 µM (inactive) in test [18]. The GI50 in [19] is 4.91 µM (inactive); in [20], 2.38 µM (inactive).

Consider `COC(=O)C1(C(=O)OC)CC(=O)c2c(OC(=O)c3cccc(OC)c3C#N)ccc(OC(=O)c3cccc(OC)c3C#N)c2C1`, for which the GI50 in [1], in test [2], in [3], in test [4], in test [5] and in [6] was > 100 µM (inactive) throughout. Further, the GI50 in [7], in test [8], in [9], in test [10], in [11] and in test [12] was > 100 µM (inactive) in each case. For the same compound, the GI50 in [13], in test [14], in test [15], in test [16], in [17] and in test [18] was > 100 µM (inactive) each time. Further, the GI50 in test [19] and in test [20] was > 100 µM (inactive) each time.

For the compound `NC(=S)NS(=O)(=O)c1ccc(Cl)cc1`, the GI50 in test [1], in test [2], in test [3], in [4], in test [5] and in test [6] was > 100 µM (inactive) in each case. For the same compound, the GI50 in test [7], in test [8], in test [9], in test [10], in [11] and in test [12] was > 100 µM (inactive) throughout. For the same compound, the GI50 in [13], in [14], in [15], in [16], in [17] and in test [18] was > 100 µM (inactive) in each case. The GI50 in [19] and in [20] was > 100 µM (inactive) each time.

As for `Cc1cc(C)nc(NS(=O)(=O)c2ccc(NNc3c4ccccc4nc4c(C(=O)Nc5ccc(S(=O)(=O)Nc6cc(C)on6)cc5)cccc34)cc2)n1`, the GI50 in [1] was 23.1 µM (inactive); in [2], 31.3 µM (inactive); in test [3] it was 44.1 µM (inactive); in [4], 23.9 µM (inactive); in [5] it was 53.7 µM (inactive); in test [6], 23.2 µM (inactive). Also, the GI50 in test [7] is 37 µM (inactive); in [8], 46.3 µM (inactive); in test [9], 32.5 µM (inactive); in test [10], 48 µM (inactive); in test [11] it was 27.4 µM (inactive); in test [12], 54.1 µM (inactive). Further, the GI50 was 29 µM (inactive) in [13]; 36.4 µM (inactive) in test [14]; 34.9 µM (inactive) in test [15]; 44.2 µM (inactive) in test [16]; 39.4 µM (inactive) in test [17]; 26.7 µM (inactive) in test [18]. Also, the figures for the GI50 in test [19] and in [20] were 20.4 µM (inactive) and 39.5 µM (inactive), respectively.

For `CSC1=C(C)S/C(=C\c2ccc(/C=C3\SC(C)=C(SC)S3)cc2)S1`, the GI50 is > 100 µM (inactive) in test [1]; > 100 µM (inactive) in [2]; 21.6 µM (inactive) in [3]; > 100 µM (inactive) in test [4]; > 100 µM (inactive) in test [5]; > 100 µM (inactive) in [6]. For the same compound, the GI50 was > 100 µM (inactive) in test [7]; > 100 µM (inactive) in test [8]; > 100 µM (inactive) in [9]; > 100 µM (inactive) in test [10]; > 100 µM (inactive) in test [11]; 89.3 µM (inactive) in [12]. The GI50 is > 100 µM (inactive) in test [13]; > 100 µM (inactive) in test [14]; 5.33 µM (inactive) in test [15]; > 100 µM (inactive) in test [16]; > 100 µM (inactive) in [17]; 79.8 µM (inactive) in [18]. Further, the GI50 in test [19] and in test [20] was > 100 µM (inactive) each time.

For the compound `CCOC(=O)C(C)c1nc2ccc(C(F)(F)F)cc2[nH]c1=O` (stereo not given), the GI50 in test [1] was 77.8 µM (inactive); in test [2] it was 72.8 µM (inactive); in [3], 64.3 µM (inactive); in test [4], > 100 µM (inactive); in test [5], 97.7 µM (inactive); in test [6], 51.6 µM (inactive). For the same compound, the GI50 in test [7] was > 100 µM (inactive); in test [8] it was 39.8 µM (inactive); in test [9], 50.2 µM (inactive); in [10] it was > 100 µM (inactive); in [11], 87.1 µM (inactive); in [12], 60.7 µM (inactive). Further, the GI50 in [13] is > 100 µM (inactive); in test [14], > 100 µM (inactive); in test [15], > 100 µM (inactive); in [16] it was 64.1 µM (inactive); in test [17], 71.9 µM (inactive); in [18] it was > 100 µM (inactive). The GI50 in test [19] was 28 µM (inactive); in test [20], > 100 µM (inactive).
